Like-named read-outs stand apart in the source and are kept apart here.
How the values were obtained:
[1] = molecular target: T1, PRMT5 (Homo sapiens, UniProt O14744); assay: PRMT5 biochemical IC50 assay with SAM as cofactor; conditions: PRMT5, SAM as cofactor; read-out: SAM IC50
T1 construct: purchased Viva (custom protein)

[2] = molecular target: T1, PRMT5; assay: PRMT5 biochemical IC50 assay with no cofactor; conditions: PRMT5, no cofactor; read-out: No Cofactor/rel IC50
From the text: Table 1 indicates IC50 values (μM) against PRMT5 for exemplary compounds in the presence of SAM as cofactor, with no cofactor, and with MTA as cofactor, respectively (columns 4-6). […] Ki values can be calculated from the IC50 values as described in the Examples section. As detailed in the Examples section, for the assay performed in the presence of SAM, IC50=Ki×1.5 (Ki=IC50/1.5).

[3] = molecular target: T1, PRMT5; assay: PRMT5 biochemical IC50 assay with MTA as cofactor; conditions: PRMT5, MTA as cofactor; read-out: MTA IC50
[4] = system: HAP1 MTAP-intact cell line; assay: SDMA in-cell western assay, HAP1 MTAP-intact; assay type: cell-based; conditions: Homo sapiens
How it was run: (§1)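 Isogenic HAP1 pair: the MTAP-intact line expresses endogenous MTAP, and the deleted line is MTAP-null. Symmetric dimethylarginine was detected by in-cell western and IC50 values derived for each line.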

[5] = system: HAP1 MTAP-deleted cell line; assay: SDMA in-cell western assay, HAP1 MTAP-deleted; assay type: cell-based; conditions: for IC50: Homo sapiens; for MTAP intact/deleted ratio: IC50 ratio HAP1 MTAP-intact / HAP1 MTAP-deleted, SDMA in-cell western
How it was run: as §1

[6] = system: HAP1 MTAP-deleted cell line; assay: Viability assay, MTAP-deleted cell line; assay type: cell-based; conditions: Homo sapiens
From the text: Table 1 additionally indicates IC50 values in a viability assay for the MTAP-deleted cell line (column 10), indicating the effect of treatment with compound on cell survival.

[7] = HAP1, SDMA in-cell western, HAP1 MTAP-intact, read-out: MTAP HAP1 intact IC50
[8] = HAP1, SDMA in-cell western, HAP1 MTAP-deleted, read-out: HAP1 MTAP deleted IC50
[9] = HAP1, viability assay, MTAP-deleted cell line, read-out: HAP1 MTAP deleted viability
[10] = HAP1, read-out: MTAP HAP1 intact IC50
[11] = HAP1, read-out: HAP1 MTAP deleted IC50
[12] = HAP1, read-out: HAP1 MTAP deleted viability

T1 sequence (O14744 whole entry): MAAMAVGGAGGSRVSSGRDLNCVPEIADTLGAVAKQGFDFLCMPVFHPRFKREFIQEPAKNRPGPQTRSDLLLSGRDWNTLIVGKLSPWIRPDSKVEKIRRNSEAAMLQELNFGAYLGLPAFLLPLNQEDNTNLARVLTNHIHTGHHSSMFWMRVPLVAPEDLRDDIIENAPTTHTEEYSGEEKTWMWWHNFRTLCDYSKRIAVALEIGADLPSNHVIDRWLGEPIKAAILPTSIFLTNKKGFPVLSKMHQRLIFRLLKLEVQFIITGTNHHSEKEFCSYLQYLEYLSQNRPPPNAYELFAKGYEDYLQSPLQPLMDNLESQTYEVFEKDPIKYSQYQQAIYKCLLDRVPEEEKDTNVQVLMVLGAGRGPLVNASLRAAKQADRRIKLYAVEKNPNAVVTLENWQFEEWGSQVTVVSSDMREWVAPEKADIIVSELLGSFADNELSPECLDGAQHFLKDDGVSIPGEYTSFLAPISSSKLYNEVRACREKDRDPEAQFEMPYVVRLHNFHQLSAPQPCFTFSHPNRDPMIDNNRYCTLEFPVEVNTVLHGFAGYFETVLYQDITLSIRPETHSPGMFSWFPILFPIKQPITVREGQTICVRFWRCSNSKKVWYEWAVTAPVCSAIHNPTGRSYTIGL
T1 sequence (Q9BQA1 whole entry partner): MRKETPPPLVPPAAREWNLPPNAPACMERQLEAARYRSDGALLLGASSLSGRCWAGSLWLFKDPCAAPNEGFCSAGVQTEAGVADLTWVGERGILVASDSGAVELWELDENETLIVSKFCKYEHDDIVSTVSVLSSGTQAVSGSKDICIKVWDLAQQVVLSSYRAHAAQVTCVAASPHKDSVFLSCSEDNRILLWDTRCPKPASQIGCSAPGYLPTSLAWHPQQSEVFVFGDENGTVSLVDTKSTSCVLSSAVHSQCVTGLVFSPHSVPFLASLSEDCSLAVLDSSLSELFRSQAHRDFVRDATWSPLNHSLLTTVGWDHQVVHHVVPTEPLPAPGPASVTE

SMILES | IC50 [1] | IC50 [2] | IC50 [3] | IC50 [4, 7] | IC50 [5, 8] | MTAP intact/deleted ratio [5] | IC50 [6, 9] | IC50 [4, 10] | IC50 [5, 11] | IC50 [6, 12]
C[C@@H]1CC[C@@H](C2CCC2)N(C(=O)C(=O)Nc2cncc(C(N)=O)c2)C1 (single isomer, unassigned) [Compound 216] | > 500 nM | > 500 nM | > 500 nM | > 1000 nM | > 1000 nM | C (an IC50 ratio of less than 3 fold) | > 10000 nM | – | – | –
Cc1cccc([C@@H]2CC[C@@H](C)CN2C(=O)C(=O)Nc2cncc(C(N)=O)c2)c1 (single isomer, unassigned) [Compound 227] | > 500 nM | > 500 nM | > 500 nM | > 1000 nM | > 1000 nM | C (an IC50 ratio of less than 3 fold) | > 10000 nM | – | – | –
C[C@@H]1CC[C@@H]2CCCC[C@@H]2N1C(=O)C(=O)Nc1cncc(C(N)=O)c1 (single isomer, unassigned) [Compound 236] | > 500 nM | > 500 nM | 50 to 500 nM | > 1000 nM | > 1000 nM | B (an IC50 ratio greater than or equal to 3 fold but lower than 10 fold) | > 10000 nM | – | – | –
Cc1cc(NC(=O)C(=O)N2C[C@@H](C)CC[C@@H]2c2ccccc2)cnc1C (single isomer, unassigned) [Compound 258] | > 500 nM | > 500 nM | > 500 nM | > 1000 nM | > 1000 nM | C (an IC50 ratio of less than 3 fold) | > 10000 nM | – | – | –
CC(=O)N[C@H]1CC[C@@H]([C@@H]2CC[C@@H](C)CN2C(=O)C(=O)Nc2cnc(N)c(C)c2)CC1 (single isomer, unassigned) [Compound 281] | > 500 nM | > 500 nM | 50 to 500 nM | > 1000 nM | 100 to 1000 nM | A (an IC50 ratio greater than or equal to 10 fold) | > 10000 nM | – | – | –
Cc1cc(NC(=O)C(=O)N2C[C@H](C)CC[C@H]2c2cccc(Cl)c2)cnc1N (single isomer, unassigned) [Compound 283] | > 500 nM | > 500 nM | > 500 nM | > 1000 nM | > 1000 nM | B (an IC50 ratio greater than or equal to 3 fold but lower than 10 fold) | > 10000 nM | – | – | –
Cc1cc(NC(=O)C(=O)N2C[C@@H](C)CC[C@@H]2c2cccc(Cl)c2)cnc1N (single isomer, unassigned) [Compound 284] | 50 to 500 nM | < 50 nM | < 50 nM | 100 to 1000 nM | < 100 nM | A (an IC50 ratio greater than or equal to 10 fold) | < 1000 nM | – | – | –
COc1ncc(NC(=O)C(=O)N2C[C@@H](C)CC[C@@H]2c2ccc(O)cc2)cc1C(N)=O (single isomer, unassigned) [Compound 288] | 50 to 500 nM | < 50 nM | < 50 nM | – | – | A (an IC50 ratio greater than or equal to 10 fold) | – | 100 to 1000 nM | < 100 nM | < 1000 nM
Cc1cc(NC(=O)C(=O)N2C[C@@H](C)CC[C@@H]2[C@H]2CC[C@@H](C(C)(C)C)CC2)cnc1N (single isomer, unassigned) [Compound 290] | > 500 nM | > 500 nM | > 500 nM | > 1000 nM | > 1000 nM | C (an IC50 ratio of less than 3 fold) | > 10000 nM | – | – | –
COc1ncc(NC(=O)C(=O)N2C[C@@H](C)CC[C@@H]2c2ccccc2)cc1C(N)=O (single isomer, unassigned) [Compound 291] | > 500 nM | > 500 nM | > 500 nM | – | – | C (an IC50 ratio of less than 3 fold) | – | > 1000 nM | > 1000 nM | > 10000 nM
COc1ncc(NC(=O)C(=O)N2C[C@H](C)CC[C@H]2c2ccc(O)cc2)cc1C(N)=O (single isomer, unassigned) [Compound 292] | > 500 nM | > 500 nM | > 500 nM | – | – | C (an IC50 ratio of less than 3 fold) | – | > 1000 nM | > 1000 nM | > 10000 nM

Continued, in another order:

IC50 [1] | IC50 [2] | IC50 [3] | IC50 [4, 7] | IC50 [5, 8] | SMILES | MTAP intact/deleted ratio [5] | IC50 [6, 9] | IC50 [4, 10] | IC50 [5, 11] | IC50 [6, 12]
50 to 500 nM | 50 to 500 nM | < 50 nM | > 1000 nM | < 100 nM | C[C@H]1CC[C@H](C2CCC2)N(C(=O)C(=O)Nc2cncc(C(N)=O)c2)C1 (single isomer, unassigned) [Compound 211] | A (an IC50 ratio greater than or equal to 10 fold) | 1000 to 10000 nM | – | – | –
50 to 500 nM | < 50 nM | < 50 nM | > 1000 nM | < 100 nM | Cc1cccc([C@H]2CC[C@H](C)CN2C(=O)C(=O)Nc2cncc(C(N)=O)c2)c1 (single isomer, unassigned) [Compound 219] | A (an IC50 ratio greater than or equal to 10 fold) | 1000 to 10000 nM | – | – | –
50 to 500 nM | 50 to 500 nM | < 50 nM | > 1000 nM | 100 to 1000 nM | C[C@H]1CC[C@H]2CCCC[C@H]2N1C(=O)C(=O)Nc1cncc(C(N)=O)c1 (single isomer, unassigned) [Compound 245] | A (an IC50 ratio greater than or equal to 10 fold) | 1000 to 10000 nM | – | – | –
< 50 nM | 50 to 500 nM | < 50 nM | > 1000 nM | 100 to 1000 nM | Cc1cc(NC(=O)C(=O)N2C[C@H](C)CC[C@H]2c2ccccc2)cnc1C (single isomer, unassigned) [Compound 254] | A (an IC50 ratio greater than or equal to 10 fold) | 1000 to 10000 nM | – | – | –
50 to 500 nM | 50 to 500 nM | < 50 nM | > 1000 nM | 100 to 1000 nM | Cc1cc(NC(=O)C(=O)N2C[C@H](C)CC[C@H]2[C@H]2CC[C@H](C(C)(C)C)CC2)cnc1N (single isomer, unassigned) [Compound 260] | C (an IC50 ratio of less than 3 fold) | 1000 to 10000 nM | – | – | –
< 50 nM | 50 to 500 nM | < 50 nM | > 1000 nM | < 100 nM | C[C@H]1C[C@H](C)[C@H](c2ccccc2)N(C(=O)C(=O)Nc2cncc(C(N)=O)c2)C1 (single isomer, unassigned) [Compound 267, 5-(2-(3,5-dimethyl-2-phenylpiperidin-1-yl)-2-oxoacetamido)nicotinamide] | A (an IC50 ratio greater than or equal to 10 fold) | 1000 to 10000 nM | – | – | –
50 to 500 nM | 50 to 500 nM | < 50 nM | > 1000 nM | 100 to 1000 nM | C[C@H]1CCC[C@@H](c2ccccc2)N1C(=O)C(=O)Nc1cncc(C(N)=O)c1 (single isomer, unassigned) [Compound 274] | A (an IC50 ratio greater than or equal to 10 fold) | 1000 to 10000 nM | – | – | –
< 50 nM | 50 to 500 nM | < 50 nM | > 1000 nM | < 100 nM | Cc1cc([C@H]2CC[C@H](C)CN2C(=O)C(=O)Nc2cncc(C(N)=O)c2)ccc1F (single isomer, unassigned) [Compound 293] | A (an IC50 ratio greater than or equal to 10 fold) | 1000 to 10000 nM | – | – | –

Source: patent US11999727B2 (Tango Therapeutics, Inc., priority 2020, dated 2024)
